Laboratory results from patent US20110183848A1, “Piperazine Compounds With Herbicidal Effect” (BASF SE, priority 2008, published 2011).

What was measured:
[1] = test system: ECHCG; test: greenhouse test, post-emergence treatment; type: in vivo, Echinochloa crus-galli; details: application rate 1.0 kg/ha, scale 0 to 100
From the text: (§1) The culture containers used were plastic flowerpots containing loamy sand with approximately 5.8% of humus as the substrate. The seeds of the test plants were sown separately for each species.
(§2) For the post-emergence treatment, the test plants were first grown to a height of 3 to 15 cm, depending on the plant habit, and then treated with the active compounds which had been suspended or emulsified in water. For this purpose, the test plants were either sown directly and grown in the same containers, or they were first grown separately as seedlings and transplanted into the test containers a few days prior to treatment.
(§3) Depending on the species, the plants were kept at 10-25° C. or 20-35° C. The test period extended over 2 to 4 weeks. During this time, the plants were tended, and their response to the individual treatments was evaluated.
(§4) Evaluation was carried out using a scale from 0 to 100. 100 means no emergence of the plants, or complete destruction of at least the aerial moieties, and 0 means no damage, or normal course of growth. A good herbicidal activity is given at values of at least 70 and a very good herbicidal activity is given at values of at least 85.
(§5) The plants used in the greenhouse experiments belonged to the following species: […]

[2] = test system: SETIT; test: greenhouse test, post-emergence treatment; type: in vivo, Setaria italica; details: application rate 1.0 kg/ha, scale 0 to 100
From the text: as §1, §2, §3, §4, §5

[3] = test system: CHEAL; test: greenhouse test, post-emergence treatment; type: in vivo, Chenopodium album; details: application rate 0.5 kg/ha, scale 0 to 100
From the text: as §1, §2, §3, §4, §5

[4] = test system: SETFA; test: greenhouse test, post-emergence treatment; type: in vivo, Setaria faberi; details: application rate 1.0 kg/ha, scale 0 to 100
From the text: as §1, §2, §3, §4, §5

[5] = test system: SETFA; test: active compound combinations, pre-emergence greenhouse test (Colby synergy); type: in vivo, Setaria faberi
From the text: as §1
(§6) For the pre-emergence treatment, the active compounds, which had been suspended or emulsified in water, were applied directly after sowing by means of finely distributing nozzles. The containers were irrigated gently to promote germination and growth and subsequently covered with transparent plastic hoods until the plants had rooted. This cover caused uniform germination of the test plants, unless this has been impaired by the active compounds.
(§7) The respective stated components A and B were formulated as a 5% by weight strength or 10% by weight strength emulsion concentrate, or a commercial formulation of component B was used, and, with addition of the amount of solvent system, introduced into the spray liquor used for applying the active compound. In the examples, the solvent used was water.
(§8) The test period extended over 20 or 21 days. During this time, the plants were tended, and their reactions to the treatments with the active compounds were monitored.
(§9) In the examples below, using the method of S. R. Colby (1967) “Calculating synergistic and antagonistic responses of herbicide combinations”, Weeds 15, p. 22ff., the value E, which is expected when the activity of the individual active compounds is only additive, was calculated.
(§10) If the value determined experimentally is higher than the value E calculated according to Colby, a synergistic effect is present.
(§11) Here, a.s.=active substance, based on 100% active compound. In the use examples 15 and 16, the values E calculated according to Colby are stated in brackets) ( ).
(§12) What was evaluated was the damage by the chemical compositions using a scale of from 0 to 100%, in comparison to the untreated control plants. 0 means no damage, and 100 means complete destruction of the plants.

[6] = test system: LOLMU; test: as above; type: in vivo, Lolium multiflorum
From the text: as §1, §6, §7, §8, §9, §10, §11, §12

[7] = test system: ALOMY; test: as above; type: in vivo, Alopecurus myosuroides
From the text: as §1, §6, §7, §8, §9, §10, §11, §12

[8] = use example 14, application rate a.s. 31.25 g/ha
[9] = use example 14, application rate a.s. 125 g/ha
[10] = use example 14, application rate a.s. 250 g/ha
[11] = use example 14, application rate a.s. 62.5 g/ha
[12] = use example 14, application rate a.s. 3.12 g/ha
[13] = use example 14, application rate a.s. 25 g/ha
[14] = use example 14, application rate a.s. 12.5 g/ha

C=CCCN1C(=O)C(=Cc2ccccc2C#N)N(C)C(=O)C1(C)Cc1ccccc1 (stereo not drawn) [I-19]
herbicidal activity against ECHCG [1]: very good (a very good herbicidal activity is given at values of at least 85) | herbicidal activity against SETIT [2]: very good (a very good herbicidal activity is given at values of at least 85)

CCCCCN1C(=O)C(=Cc2ccccc2C#N)N(C)C(=O)C1(C)Cc1ccccc1 (stereo not drawn) [I-21]
herbicidal activity against CHEAL [3]: very good (a very good herbicidal activity is given at values of at least 85)

CN1C(=O)C(C)(Cc2ccccc2)N(CC2CC2)C(=O)C1=Cc1ccccc1C#N (stereo not drawn) [I-25]
herbicidal activity against SETFA [4]: very good (a very good herbicidal activity is given at values of at least 85)

CCOc1ncccc1CC1C(=O)N(COC)C(C)(Cc2ccccc2)C(=O)N1C (stereo not drawn) [II-26]
Herbicidal activity in % after 20 days against SETFA [5, 8]: 10% | Herbicidal activity in % after 20 days against SETFA [5, 9]: 75% | Herbicidal activity in % after 20 days against SETFA [5, 10]: 100% | Herbicidal activity in % after 20 days against LOLMU [6, 8]: 0% | Herbicidal activity in % after 20 days against LOLMU [6, 11]: 15% | Herbicidal activity in % after 20 days against LOLMU [6, 9]: 98% | Herbicidal activity in % after 20 days against ALOMY [7, 8]: 30% | Herbicidal activity in % after 20 days against ALOMY [7, 11]: 60% | Herbicidal activity in % after 20 days against ALOMY [7, 9]: 90% | Herbicidal activity in % after 20 days against ALOMY [7, 10]: 95%

CCNc1nc(Cl)nc(NC(C)C)n1 [atrazine]
Herbicidal activity in % after 20 days against LOLMU ([6]; application rate a.s. 125 g/ha): 0% | Herbicidal activity in % after 20 days against LOLMU ([6]; application rate a.s. 250 g/ha): 20% | Herbicidal activity in % after 20 days against ALOMY ([7]; application rate a.s. 125 g/ha): 35% | Herbicidal activity in % after 20 days against ALOMY ([7]; application rate a.s. 250 g/ha): 65%

Cn1nc(C(F)(F)F)c(CS(=O)(=O)C2=NOC(C)(C)C2)c1OC(F)F [pyroxasulfone]
Herbicidal activity in % after 20 days against SETFA [5, 12]: 0% | Herbicidal activity in % after 20 days against SETFA ([5]; use example 14, application rate a.s. 6.25 g/ha): 25% | Herbicidal activity in % after 20 days against SETFA [5, 13]: 95% | Herbicidal activity in % after 20 days against LOLMU [6, 12]: 15% | Herbicidal activity in % after 20 days against LOLMU [6, 14]: 75% | Herbicidal activity in % after 20 days against LOLMU [6, 13]: 80% | Herbicidal activity in % after 20 days against ALOMY [7, 12]: 25% | Herbicidal activity in % after 20 days against ALOMY [7, 14]: 95% | Herbicidal activity in % after 20 days against ALOMY [7, 13]: 95%
